According to patent publication US9951094B2, “Phosphole compound and fluorescent dye containing the same” (NATIONAL UNIVERSITY CORPORATION NAGOYA UNIVERSITY, priority 2014, dated 2018):
Marks after values point to notes of the source that are not given here.

What was measured:
Format in all cases: physicochemical
[1] = Absolute fluorescence quantum yield in solvents
Protocol: (§1) The optical properties of compounds 1 to 3, 6b to 6d, 7a, and 7b were evaluated. Ultraviolet-visible (UV-Vis) absorption and fluorescence spectra were measured with an UV-Vis-NIR spectrophotometer UV-3150 (Shimadzu) and a fluorescence spectrophotometer F-4500 (Hitachi), respectively. Absolute fluorescence quantum yield was determined with an absolute PL quantum yield measurement instruments C9920-02 or C11347-01 (Hamamatsu Photonics). Sample solutions of all the samples were prepared using spectral grade solvents purchased from Nacalai Tesque, and were each measured with a 1 cm square quartz cuvette. The concentrations of each sample for the measurement of UV-Vis absorption spectra were set for ca. 10^−5 M. The concentrations of each sample for the measurement of fluorescence spectra were adjusted in a range where concentration quenching would not occur. For the measurement of absolute fluorescence quantum yield, each sample solution was deaerated by purging with an argon gas stream for several minutes prior to the measurements. The orientation polarizabilities Δf of hexane, ethyl acetate, and methanol, which are not shown in the Tables, were −0.000518, 0.201, and 0.309, respectively.

[2] = Fluorescence spectra in solvents
Protocol: as §1

[3] = UV-Vis absorption spectra in solvents
Protocol: as §1

[4] = Photobleaching resistance, 403 nm laser irradiation of acetonitrile solutions; conditions: acetonitrile solution, 403 nm laser light, 120 minutes; FIG. 2
Protocol: Solutions of compounds 1, 2 (6a), 6b, 7a, 7b, and a known fluorescent dye Alexa-430 each in acetonitrile were prepared so that their absorbances are in the range from 0.39 to 0.44. The concentration of each compound in the solution was 2.35×10^−5 M for compound 1, 2.17×10^−5 M for compound 2 (6a), 1.25×10^−5 M for compound 6b, 3.30×10^−5 M for compound 7a, and 2.04×10^−5 M for compound 7b. […] Immediately after preparation of each acetonitrile solution, the molar absorption coefficient of the acetonitrile solution was measured. Then, the molar absorption coefficient of the acetonitrile solution was measured after each of irradiations with 403 nm laser light for 20 minutes, 60 minutes, and 120 minutes, and the relative absorbance was determined relative to the molar absorption coefficient before laser light irradiation (immediately after preparation of the solution).

[5] = cyclohexane, apparatus C11347-01, self-absorption correction
[6] = cyclohexane, apparatus C11347-01
[7] = ethyl acetate, apparatus C11347-01

| Structure (SMILES) | Fluorescence Quantum Yield φF ([1]; CH3CN, apparatus C11347-01) | Fluorescence Quantum Yield φF [1, 5] | Emission Maximum Wavelength λ em ([2]; CH2Cl2) [nm] | Emission Maximum Wavelength λ em ([2]; CH3CN) [nm] | Emission Maximum Wavelength λ em ([2]; DMF) [nm] | Emission Maximum Wavelength λ em ([2]; EtOH) [nm] | Emission Maximum Wavelength λ em ([2]; benzene) [nm] | Emission Maximum Wavelength λ em ([2]; cyclohexane) [nm] | Absorption Maximum Wavelength λ max ([3]; CH2Cl2) [nm] | Molar Absorption Coefficient ϵ ([3]; CH2Cl2) | Absorption Maximum Wavelength λ max ([3]; CH3CN) [nm] | Absorption Maximum Wavelength λ max ([3]; DMF) [nm] | Molar Absorption Coefficient ϵ ([3]; DMF) | Absorption Maximum Wavelength λ max ([3]; EtOH) [nm] | Molar Absorption Coefficient ϵ ([3]; EtOH) | Absorption Maximum Wavelength λ max ([3]; cyclohexane) [nm] | Molar Absorption Coefficient ϵ ([3]; cyclohexane) | Fluorescence Quantum Yield φF ([1]; EtOH, apparatus C11347-01) | Molar Absorption Coefficient ϵ ([3]; CH3CN) | Fluorescence Quantum Yield φF [1, 6] | other results |
| --- | --- | --- | --- | --- | --- | --- | --- | --- | --- | --- | --- | --- | --- | --- | --- | --- | --- | --- | --- | --- | --- |
| O=P1(c2ccccc2)C(c2ccc(N(c3ccccc3)c3ccccc3)cc2)=C(c2ccccc2)c2ccccc21 (stereo not shown) [Compound 1, 2-[4-(N,N-diphenylamino)phenyl]-1,3-diphenylbenzo[b]phosphole-P-oxide] | 0.67^a | 0.92^a,c | 561 | 597 | 598 | 595 | 531 | 508 | 416 | 1.76 10^4M^−1 cm^−1 | 404 | 409 | 1.77 10^4M^−1 cm^−1 | 417 | 1.68 10^4M^−1 cm^−1 | 412 | 1.82 10^4M^−1 cm^−1 | – | – | – | Fluorescence Quantum Yield φF ([1]; CH2Cl2, apparatus C9920-02): 0.84^b; Fluorescence Quantum Yield φF ([1]; CHCl3, apparatus C9920-02): 0.89^b; Fluorescence Quantum Yield φF ([1]; DMF, apparatus C9920-02): 0.71^b; Fluorescence Quantum Yield φF ([1]; benzene, apparatus C9920-02): 0.89^b; Fluorescence in various solvents from low-polarity to high-polarity solvents [2]: strong fluorescence; Emission Maximum Wavelength λ em ([2]; CHCl3): 551 nm; Shift of fluorescence wavelength as the polarity of the solvent increases ([2]; Table 1 solvents): shifted to the longer wavelength; Absorption Maximum Wavelength λ max ([3]; CHCl3): 418 nm; Molar Absorption Coefficient ϵ ([3]; CHCl3): 1.78 10^4M^−1 cm^−1; Absorption Maximum Wavelength λ max ([3]; benzene): 416 nm; Molar Absorption Coefficient ϵ ([3]; benzene): 1.88 10^4M^−1 cm^−1 |
| O=P1(c2ccccc2)C(c2ccc(N(c3ccccc3)c3ccccc3)cc2)=Cc2ccccc21 (stereo not shown) [Compound 2, 2-[4-(N,N-diphenylamino)phenyl]-1-phenylbenzo[b]phosphole-P-oxide] | 0.61 | 0.93^b | 543 | 571 | 564 | 565 | 497 | 456 | 413 | 1.75 10^4M^−1 cm^−1 | 406 | 409 | 1.71 10^4M^−1 cm^−1 | 416 | 1.78 10^4M^−1 cm^−1 | 410 | 1.95 10^4M^−1 cm^−1 | 0.57 | 1.77 10^4M^−1 cm^−1 | – | Fluorescence Quantum Yield φF ([1]; CH2Cl2, apparatus C11347-01): 0.91; Fluorescence Quantum Yield φF ([1]; DMF, apparatus C11347-01): 0.67; Fluorescence Quantum Yield φF ([1]; benzene, apparatus C11347-01): 0.97; Absorption Maximum Wavelength λ max ([3]; benzene): 414 nm; Molar Absorption Coefficient ϵ ([3]; benzene): 1.91 10^4M^−1 cm^−1 |
| CN(C)c1ccc(C2=Cc3ccccc3P2(=O)c2ccccc2)cc1 (stereo not shown) [Compound 3, 2-[4-(N,N-dimethylamino)phenyl]-1-phenylbenzo[b]phosphole-P-oxide] | 0.89 | 0.91^b | 532 | 558 | 559 | 565 | 507 | 456 | 412 | 1.71 10^4M^−1 cm^−1 | 408 | 412 | 1.73 10^4M^−1 cm^−1 | 415 | 1.69 10^4M^−1 cm^−1 | 401 | – | 0.82 | 1.73 10^4M^−1 cm^−1 | – | Fluorescence Quantum Yield φF ([1]; CH2Cl2, apparatus C11347-01): 0.93; Fluorescence Quantum Yield φF ([1]; DMF, apparatus C11347-01): 0.88; Absolute fluorescence quantum yield compared with compound 2 ([1]; Tables 2 and 3): higher absolute fluorescence quantum yield than compound 2; Fluorescence Quantum Yield φF ([1]; benzene, apparatus C11347-01): 0.95; Absorption Maximum Wavelength λ max ([3]; benzene): 410 nm; Molar Absorption Coefficient ϵ ([3]; benzene): 1.89 10^4M^−1 cm^−1 |
| O=P1(c2ccccc2)C(c2ccc(N(c3ccccc3)c3ccccc3)cc2)=Cc2cc3ccccc3cc21 (stereo not shown) [Compound 6b] | 0.80 | – | 533 | 563 | – | 550 | – | 450 | 414 | 3.66 10^4M^−1 cm^−1 | 405 | – | – | 413 | 2.67 10^4M^−1 cm^−1 | 409 | 4.17 10^4M^−1 cm^−1 | 0.79 | 3.25 10^4M^−1 cm^−1 | 0.90 | Fluorescence Quantum Yield φF ([1]; CH2Cl2, apparatus C11347-01): 0.95; Resistance to photobleaching (relative absorbance) [4]: outstanding resistance to photobleaching |
| O=P1(c2ccccc2)C(c2cc3c4c(c2)CCCN4CCC3)=Cc2cc3ccccc3cc21 (stereo not shown) [Compound 6c] | 0.71 | – | – | 580 | – | 583 | – | 466 | – | – | 425 | – | – | 429 | 2.33 10^4M^−1 cm^−1 | 420 | 2.38 10^4M^−1 cm^−1 | 0.67 | 2.35 10^4M^−1 cm^−1 | 0.90 | Fluorescence Quantum Yield φF [1, 7]: 0.90; Emission Maximum Wavelength λ em ([2]; ethyl acetate): 538 nm; Absorption Maximum Wavelength λ max ([3]; ethyl acetate): 420 nm; Molar Absorption Coefficient ϵ ([3]; ethyl acetate): 2.38 10^4M^−1 cm^−1 |
| O=P1(c2ccccc2)C(c2ccc(N(c3ccccc3)c3ccccc3)cc2)=Cc2ccc3ccccc3c21 (stereo not shown) [Compound 6d] | 0.58 | – | – | 620 | – | 611 | – | 495 | – | – | 439 | – | – | 448 | 1.94 10^4M^−1 cm^−1 | 440 | 1.81 10^4M^−1 cm^−1 | 0.51 | 2.07 10^4M^−1 cm^−1 | 0.92 | Fluorescence Quantum Yield φF [1, 7]: 0.90; Emission Maximum Wavelength λ em ([2]; ethyl acetate): 564 nm; Absorption Maximum Wavelength λ max ([3]; ethyl acetate): 436 nm; Molar Absorption Coefficient ϵ ([3]; ethyl acetate): 2.02 10^4M^−1 cm^−1 |
| O=P1(c2ccccc2)C2=C(c3ccccc31)C(c1ccccc1)(c1ccccc1)c1cc(N(c3ccccc3)c3ccccc3)ccc12 (stereo not shown) [Compound 7a] | 0.79 | – | – | 590 | – | 589 | – | 482 | – | – | 428 | – | – | 439 | 1.60 10^4M^−1 cm^−1 | 424 | 1.60 10^4M^−1 cm^−1 | 0.70 | 1.62 10^4M^−1 cm^−1 | 0.88 | Fluorescence Quantum Yield φF [1, 7]: 0.90; Emission Maximum Wavelength λ em ([2]; ethyl acetate): 540 nm; Absorption Maximum Wavelength λ max ([3]; ethyl acetate): 424 nm; Molar Absorption Coefficient ϵ ([3]; ethyl acetate): 1.61 10^4M^−1 cm^−1; Resistance to photobleaching (relative absorbance) [4]: outstanding resistance to photobleaching |
